From patent US20250262209A1, “TREATMENT OF GASTROINTESTINAL DISEASES” (Aclipse Two, Inc., priority 2022, published 2025) come the findings set out here.

This test relates to DSS-induced IBD model in female Balb/c mice. In words: DSS-induced IBD model: body weight, DAI score, colon length and weight. The conditions noted are these: for DAI score: lobeglitazone groups (0.36, 1.20, 3.61 mg/kg PO QD). In kind it is in vivo. As to the method: The purpose of this study was to test the efficacy of compound lobeglitazone in the DSS-induced IBD model in female Balb/c mice following oral administration. The study was conducted at an AAALAC accredited facility, and all animal study procedures were approved by the Institutional Animal Care and Use Committee (IACUC).
Precise amount of lobeglitazone sulfate (lot: EW34258-13-P1; purity: 97.6%) was weighted out into a clean tube, 0.5% CMC was added and vortexed fully, then sonicated 2-3 minutes to get an even suspension. The concentration of the solution was 0.361 mg/ml, 0.120 mg/mL, and 0.036 mg/mL. The dosing solution was freshly made daily until the end of the study. The compound was orally (PO), 10 mL/kg daily dosed for 10 days.
Totally 125.82 mg cyclosporin A (CSA, purity 98%) was weighed out into a clean tube, 2.055 mL castor oil was added firstly, then 39.046 mL […] (with 0.1% tween80) was added, vortexed fully, then sonicated 10 min to get a clear solution. The concentration of the solution was 3 mg/mL. The compound was PO, 10 mL/kg daily dosed for 10 days.
5% DSS preparation: […] DSS powder was weighted out into a clean bottle, 1 L Milli Q water was added subsequently, the solution was stirred until it was clear. Then 5% DSS was transferred to water bottle of the animal. 5% DSS was freshly made daily until the end of the study.
A total of 50 (7 weeks old) female Balb/c were purchased from Beijing Vital River Laboratory Animal Technology Co., Ltd. Animals were acclimatized for 1 week prior to the experiment. All the in vivo experimental procedures were approved by the institutional animal care and use committee (IACUC). All euthanasia was performed using carbon dioxide inhalation and all efforts were made to minimize animal suffering.
At the beginning of the study, randomization was performed based on body weight. All animals were randomly assigned to one of six groups (Table 1). The study schedule is described in FIG. 1.
DAI score was calculated by the sum of weight loss score, stool consistency score, and occult-gross bleeding score. Body weight loss was calculated by comparison with the body weight on day 1. Feces samples were collected from each individual animal, and stool consistency and occult-gross bleeding were evaluated according to Table 2. Stool Consistency was evaluated by the appearance of the feces. Occult-gross bleeding was evaluated using Fecal Occult Blood test strips. Occult bleeding score of 1 will be assigned if light or dark purple color developed within 20 seconds and longer than 15 seconds. Occult bleeding score of 2 was assigned if light or dark purple color developed within 15 seconds. Occult-gross bleeding score of 3 would be assigned if blood was visible in the feces.
Animals were euthanized by CO2 at the end of study. Colon length and colon weight (cecum is not included) were recorded, and macroscopic changes were scored based on Table 2. The colon was cleaned using saline, and all feces were removed before weight measurement. The middle part of colon was collected in cassette and fixed in 10% neutral buffered formalin (NBF) for H&E and PAS staining. For left colon, mucosal from colon surface was removed and then snap frozen in liquid nitrogen and store at −80° C. for QT-PCR analysis of TNF-α, IL-10, CCL2, and IL-1β. QT-PCR primers were purchased from Sangon Biotech Co., Ltd.
In vivo animal data were presented as mean±SEM. Statistical analysis was performed by one-way ANOVA followed by Dunnett's multiple comparison. […] The difference was considered significance when p<0.05.

Where [1] appears, read: lobeglitazone groups (0.36, 1.20, 3.61 mg/kg PO QD 10 days), vs control group.

For `COc1ccc(Oc2cc(N(C)CCOc3ccc(CC4SC(=O)NC4=O)cc3)ncn2)cc1` (centres unmarked) [lobeglitazone, 5-(4-(2-((6-(4-Methoxyphenoxy)pyrimidin-4-yl)(methyl)amino)ethoxy)benzyl)thiazolidine-2,4-dione], the body weight changes entry by setting is: (0.36 mg/kg PO QD, vs control group) “no significant body weight changes”; (1.20 mg/kg PO QD, vs control group) “no significant body weight changes”; (3.61 mg/kg PO QD, day 2, vs control (no drug) group) “significantly reduced”. For the same compound, the colon length result under setting [1] is “did not significantly increase”. Besides, the colon length/weight ratio result under setting [1] is “did not significantly decrease”. Under setting [1], the colon weight entry was “did not significantly change”. The DAI score entry reads like this: (vs control group) “did not significantly reduce”; (vs control group, listed as Lobeglitazone) “did not significantly decrease”.
